Tests used:
Assay type in all cases: cell-based
[1] = test system: endolysosomes in HeLa cells; experiment: Dynamics of PyQPMe-stained endolysosomes (puncta counting)
Protocol: FIGS. 5A-5H depict the characterization of dynamics of PyQPMe-stained endolysosomes. FIG. 5A. Confocal images of HeLa cells stained with PyQPMe following treatment with or without Wortmannin for 24 h. FIG. 5B. Schematic illustration of the effect of Wortmannin which inhibits the conversion from early endosomes into late endosomes. FIG. 5C. Quantification of total endolysosomes and late endosomes/lysosomes in PyQPMe-stained HeLa cells with or without Wortmannin treatment. FIG. 5D. The ratio of the number of late endosomes/lysosomes to total endolysosomes in PyQPMe-stained HeLa cells treated with or without Wortmannin. FIG. 5E. Confocal images of HeLa cells stained with PyQPMe for 10 min and 60 min. FIG. 5F. The mean red puncta fluorescence intensity of PyQPMe-stained HeLa cells for 10 min and 60 min incubation. FIG. 5G. Quantification of total endolysosomes and late endosomes/lysosomes in PyQPMe-stained HeLa cells for 10 min and 60 min. FIG. 5H. The ratio of the number of late endosomes/lysosomes to total endolysosomes in PyQPMe-stained HeLa cells for 10 min and 60 min. Data are given as M±SEM (n=10 independent samples from 10 cells for each statistical analysis); the statistical differences were analyzed by Student's t-test, p<0.05 is considered to statistical significant (** p≤0.01; *** p≤0.001; **** p≤0.0001; ns p>0.05).
Because of the popularity of quantitative cell biology, it is important to design powerful tools that can digitize individual cells and subcellular organelles to elucidate biological problems in detail. With its great pH response, long-term photostability, and excellent signal-to-noise ratio for high-resolution imaging, PyQPMe was successfully used to track the dynamics of endolysosomes within cells by counting the number of puncta fluorescence signals in both green and red channels (FIG. 5A).
Next, the effects of different incubation time on the endocytic pathway were tested.
(§1) Leica Stellaris 8 Confocal imaging. High-resolution images were acquired on a commercial Leica Stellaris 8 Confocal Microscope under LIGHTNING mode. Laser powers were set at 10% intensity for 405 nm and 640 nm channels. The objective was 63×/1.4. High-resolution images were captured from the randomly selected field of view and analyzed with Leica LAS X and ImageJ software. All the images were exported on the Auto scale of the Leica LAS X software. Cells were seeded on glassed-bottomed cell dishes (MatTek) for 24 hours. Cells stained with PyQPMe (20 nM, 10 min) were treated with Wortmannin (1 μM, 24 h), CCCP ([…], 24 h), rapamycin (0.5 μM, 24 h), chloroquine (25 μM, 30 min), and NH4Cl (50 mM, 30 min). All PCC values were analyzed in the CellProfiler.

[2] = test system: endolysosomes in HeLa cells; experiment: Dual-channel confocal imaging of PyQPMe-stained endolysosomes, co-stained with LTDR
Protocol: Next, imaging studies of PyQPMe were performed under a dual channel mode with the same excitation of 405 nm (green channel, emission range of 470-530 nm; red channel, emission range of 610-680 nm). Due to the strong green emission properties of PyQPMe over a wide pH range, many puncta fluorescence appeared throughout the cell in the green channel image (FIG. 3A). While in the red channel image, there is less puncta fluorescence in the cell because PyQPMe only emits red light at pH values below 6. Therefore, this imaging property of PyQPMe at different channels can guide one to track different stages of endocytosis. Images were randomly zoomed in and their fluorescence intensity was compared. […] Further, the average diameter of PyQPMe red spots is around 0.6 μm, which is in line with the reported size of lysosomes. To further verify the targeting ability of PyQPMe, the cells were co-stained with commercial lysosome dye Lyso-Tracker Deep Red (LTDR) and imaged under a deep red channel (excitation of 640 nm, emission range of 690-740 nm).
as §1

HeLa cells [3] = experiment: Photobleaching comparison of LTR and PyQPMe; conditions: 100% laser power, after 40 s of scans; % of original value
Excerpt: FIGS. 4A-4G depict the characterization of imaging properties of PyQPMe-stained endolysosomes. FIG. 4A. Confocal image of PyQPMe-stained endolysosomes and fluorescence intensity profile (FIG. 4B) of the write line in FIG. 4A. FIG. 4C. Confocal image of PyQPMe-stained late endosomes/lysosomes and fluorescence intensity profile (FIG. 4D) of the write line in FIG. 4C. FIG. 4E. Confocal images of HeLa cells labeled with LTR and PyQPMe and 3D fluorescence intensity plots of rectangles of integration. FIG. 4F. Continuous imaging of HeLa cells labeled with LTR or PyQPMe at 100% laser intensity for photobleaching, and each scan time was 10 s, images were captured under a red channel. FIG. 4G. Normalized fluorescence intensity of LTR and PyQPMe in FIG. 4F.
Resistance to photobleaching is a crucial property of probes that determines whether they can be used for long-term fluorescence tracking. To characterize this property, a photobleaching comparison study between LTR and PyQPMe was done in HeLa cells (FIG. 4F).
Leica Stellaris 8 Confocal imaging. High-resolution images were acquired on a commercial Leica Stellaris 8 Confocal Microscope under LIGHTNING mode. Laser powers were set at 10% intensity for 405 nm and 640 nm channels. […] High-resolution images were captured from the randomly selected field of view and analyzed with Leica LAS X and ImageJ software. […] All PCC values were analyzed in the CellProfiler.

HeLa cells [4] = experiment: Background fluorescence / signal-to-noise comparison with LysoTracker Red; conditions: compared with LTR, same imaging conditions
Excerpt: Since PyQPMe has a large Stokes shift and strong fluorescence intensity, it can effectively reduce the background noise caused by excitation light and microenvironments. To illustrate this merit, the commercial lysosome dye (LysoTracker Red, LTR) was selected for comparison. Two different regions of the background were randomly chosen in each fluorescence image and plotted their 3D fluorescence intensity distribution maps, as shown in FIG. 4E.
as §1

With `CN1CCN(c2ccc(/C=C/c3ccc4cc(-c5ccncc5)ccc4[n+]3C)cc2)CC1` [PyQPMe, (E)-1-methyl-2-(4-(4-methylpiperazin-1-yl)styryl)-6-(pyridin-4-yl)quinolin-1-ium] the “intensity of puncta fluorescence in red channel” value ([1]; 60 min vs 10 min incubation) was “increased during 60 min incubation”, the “number of total endolysosomes and late endosomes/lysosomes detected” value ([1]; 60 min vs 10 min incubation) was “more PyQPMe-stained total endolysosomes and late endosomes/lysosomes were simultaneously detected” and the “percentage of late endosomes/lysosomes in total endolysosomes” value ([1]; regardless of incubation time (10 min, 60 min)) was “remained stable”. For the same compound, the “ratio of red to green fluorescence intensity, early endosomes” value ([2]; ex 405 nm, early endosomes) was “very low ratio of red to green fluorescence intensity”, the “ratio of red to green fluorescence intensity, late endosomes/lysosomes” value ([2]; ex 405 nm, late endosomes/lysosomes) was “higher than 1” and the “PCC with LTDR, green channel” value ([2]; green channel particles vs deep red channel of LTDR) was 0.46. For the same compound, the “average diameter of red spots” value ([2]; red channel) was “around 0.6 μm”, the “Pearson correlation coefficient (PCC) with LTDR, red channel” value ([2]; red channel puncta vs deep red channel of LTDR) was “about 0.70” and the “pH below which red light is emitted” value ([2]; red channel, 610-680 nm) was “below 6”. For the same compound, the “fluorescence signal remaining after photobleaching” value (HeLa cells [3]) was 22%, the “background fluorescence of confocal images” value (HeLa cells [4]) was “significantly reduced” and the signal-to-noise ratio (HeLa cells [4]) was “better than that of LTR”.

— US20260318831A1 (University of Cincinnati, priority 2023, published 2026)
